According to patent US20250059264A1, “METHOD OF TREATING STROKE” (AlaMab Therapeutics, Inc., priority 2023, published 2025):

Tests used:
[1] = tested on: rat model of stroke induced by middle cerebral artery occlusion (MCAO); assay: Rotarod test, dosing regimen (Example 4); assay type: in vivo, SD rats; conditions: 10 mg/kg (table label) i.v. Bid from 30 min after infarction
Protocol: (§1) The first administration of the respective treatments was started 30 minutes (Day 1 of study) after the MCAO procedure of the rats. For the butylphthalide group, subsequent doses were administered every day after for 14 days. For the ALMB-0166 test groups, a second dose of the antibody was administered at Day 4 post-stroke (Day 4 of the study). Thirty-six (36) SD rats received behavioral training after adaptive feeding period and before the operation to establish stroke models. The behavioral training included beam-walking, grip and rotarod tests. The experimental rats were then randomly divided into 6 groups according to the body weight, with 6 rats in each test group as described in Table 15. The rats were fasted overnight before modeling and were anesthetized with isoflurane. Right middle cerebral artery occlusion (MCAO) was induced in each rat using the intraluminal filament technique to mimic focal cerebral ischemic stroke. After 2 hrs, reperfusion was allowed by removing the occlusion. Administration of butylphthalide was performed 0.5 hrs after the infarction, and every day after the operation (14 days). Administration of ALMB-0166 and the vehicle treatment was performed at 0.5 hrs and at Day 4 after the operation. The body weight of rats was recorded before the operation (Day 0 of study) and on Days 2, 4, 7, and 11 after the procedure. The rats were scored by the Longa method at Day 1 (24-hours) post-procedure. The neurological function was evaluated at Days 1, 2, 4, 7, and 14 after the procedure, and was assessed by beam-walking, grip strength, and rotarod tests. At Day 14 after reperfusion, the whole brain tissue of all rats was harvested to assess the cerebral infarct area by TTC staining. The total infarct volume was determined, and the infarct volume ratio was calculated by dividing the total infarct volume by the whole brain volume. For calculating the infarct volume rate, the difference in infarct volume ratio between the model group and the corresponding administration group was divided by the infarct volume ratio of the model group.

[2] = tested on: mouse model of stroke induced by middle cerebral artery occlusion (MCAO); assay: Brain water content (Example 1); assay type: in vivo, ICR mice; conditions: 10 mg/kg i.v. Bid from 30 min after infarction; 48 h after reperfusion
Protocol: (§2) The administration of the respective treatments was started 30 minutes after the MCAO procedure of the mice.
(§3) Seventy-two (72) ICR mice received behavioral training after adaptive feeding period and before the operation to establish stroke models. The behavioral training included beam-walking and rotarod test. The experimental mice were then randomly divided into 6 groups according to the values of the body weight, with 12 mice in each test group as described in Table 1.
(§4) The mice were fasted overnight before modeling and were anesthetized with isoflurane. Right middle cerebral artery occlusion (MCAO) was induced in mice using the intraluminal filament technique to mimic focal cerebral ischemic stroke. After 1 hr, reperfusion was allowed by removing the occlusion. During the operation, a white light was used to maintain the mouse rectal temperature between 36.5° C.-37.0° C.
(§5) Administration of each treatment was performed 0.5 h after the infarction. The neurological function score was evaluated at 24 hrs and 48 hrs after reperfusion, as was assessed by beam-walking, grip strength, and rotarod tests. At 48 h after reperfusion, the whole brain tissue of all rats was harvested to assess the cerebral infarct area by TTC staining, as well as to measure brain volume and brain water content, two indicators of acute cerebral edema.

[3] = tested on: rat model of stroke induced by middle cerebral artery occlusion (MCAO); assay: Cerebral infarct volume by TTC staining, dosing regimen (Example 4); assay type: in vivo, SD rats; conditions: 10 mg/kg (table label) i.v. Bid from 30 min after infarction, 14-days post-operation
Protocol: (§6) The first administration of the respective treatments was started 30 minutes (Day 1 of study) after the MCAO procedure of the rats. For the butylphthalide group, subsequent doses were administered every day after for 14 days. For the ALMB-0166 test groups, a second dose of the antibody was administered at Day 4 post-stroke (Day 4 of the study). Thirty-six (36) SD rats received behavioral training after adaptive feeding period and before the operation to establish stroke models. The behavioral training included beam-walking, grip and rotarod tests. The experimental rats were then randomly divided into 6 groups according to the body weight, with 6 rats in each test group as described in Table 15. The rats were fasted overnight before modeling and were anesthetized with isoflurane. […] The body weight of rats was recorded before the operation (Day 0 of study) and on Days 2, 4, 7, and 11 after the procedure. The rats were scored by the Longa method at Day 1 (24-hours) post-procedure. The neurological function was evaluated at Days 1, 2, 4, 7, and 14 after the procedure, and was assessed by beam-walking, grip strength, and rotarod tests. […] The total infarct volume was determined, and the infarct volume ratio was calculated by dividing the total infarct volume by the whole brain volume. […]

[4] = tested on: rat model of stroke induced by middle cerebral artery occlusion (MCAO); assay: Brain water content (Example 3); assay type: in vivo, SD rats; conditions: 10 mg/kg (table label) i.v. Bid from 30 min after infarction; 48 h after reperfusion
Protocol: (§7) The administration of the respective treatments was started 30 minutes after the MCAO procedure of the rats.
as §3, with “SD rats” for “ICR mice”, “beam-walking, grip” for “beam-walking”, “tests.” for “test.”, “rats” for “mice”, “the” for “the values of the”, “15.” for “1.”
(§8) The rats were fasted overnight before modeling and were anesthetized with isoflurane. Right middle cerebral artery occlusion (MCAO) was induced in each rat using the intraluminal filament technique to mimic focal cerebral ischemic stroke. After 2 hrs, reperfusion was allowed by removing the occlusion.
as §5, with “The rats were scored by the Longa method at 24-hours post-procedure. The” for “The”, “function” for “function score”, “at 24-hr” for “at 24 hrs”, “and 48-hr” for “and 48 hrs”, “reperfusion, and” for “reperfusion, as”

[5] = tested on: rat model of stroke induced by middle cerebral artery occlusion (MCAO); assay: Brain volume (Example 3); assay type: in vivo, SD rats; conditions: 10 mg/kg (table label) i.v. Bid from 30 min after infarction; 48 h after reperfusion
Protocol: as §7
as §3, with “SD rats” for “ICR mice”, “beam-walking, grip” for “beam-walking”, “tests.” for “test.”, “rats” for “mice”, “the” for “the values of the”, “15.” for “1.”
as §8
as §5, with “The rats were scored by the Longa method at 24-hours post-procedure. The” for “The”, “function” for “function score”, “at 24-hr” for “at 24 hrs”, “and 48-hr” for “and 48 hrs”, “reperfusion, and” for “reperfusion, as”

[6] = tested on: mouse model of stroke induced by middle cerebral artery occlusion (MCAO); assay: Brain volume (Example 1); assay type: in vivo, ICR mice; conditions: 10 mg/kg i.v. Bid from 30 min after infarction; 48 h after reperfusion
Protocol: as §2, §3, §4, §5

[7] = tested on: rat model of stroke induced by middle cerebral artery occlusion (MCAO); assay: Beam-walking test, dosing regimen (Example 4); assay type: in vivo, SD rats; conditions: 10 mg/kg (table label) i.v. Bid from 30 min after infarction
Protocol: as §1

[8] = tested on: mouse model of stroke induced by middle cerebral artery occlusion (MCAO); assay: Rotarod test (Example 1); assay type: in vivo, ICR mice; conditions: 10 mg/kg i.v. Bid from 30 min after infarction
Protocol: as §2, §3, §4, §5

[9] = tested on: rat model of stroke induced by middle cerebral artery occlusion (MCAO); assay: Rotarod test (Example 3); assay type: in vivo, SD rats; conditions: 10 mg/kg (table label) i.v. Bid from 30 min after infarction
Protocol: as §7
as §3, with “SD rats” for “ICR mice”, “beam-walking, grip” for “beam-walking”, “tests.” for “test.”, “rats” for “mice”, “the” for “the values of the”, “15.” for “1.”
as §8
as §5, with “The rats were scored by the Longa method at 24-hours post-procedure. The” for “The”, “function” for “function score”, “at 24-hr” for “at 24 hrs”, “and 48-hr” for “and 48 hrs”, “reperfusion, and” for “reperfusion, as”

[10] = tested on: rat model of stroke induced by middle cerebral artery occlusion (MCAO); parameters: species or system SD rats; conditions: in vivo
Protocol: as §6

[11] = tested on: mouse model of stroke induced by middle cerebral artery occlusion (MCAO); assay: Brain water content, time of treatment (Example 2); assay type: in vivo, ICR mice; conditions: 48 h after reperfusion
Protocol: (§9) The administration of 10 mg/kg butylphthalide and 50 mg/kg ALMB-0166 was started 30 minutes, 2 hours, or 6 hours after the MCAO procedure of the mice. Ninety-six (96) ICR mice received behavioral training after adaptive feeding period and before the operation to establish stroke models. The behavioral training included beam-walking and rotarod test. The experimental mice were then randomly divided into 8 groups according to the values of the body weight, with 12 mice in each test group as described in Table 1. The mice were fasted overnight before modeling and were anesthetized with isoflurane. Right middle cerebral artery occlusion (MCAO) was induced in mice using the intraluminal filament technique to mimic focal cerebral ischemic stroke. After 1 hr, reperfusion was allowed by removing the occlusion. Administration of each treatment was performed 0.5 hrs, 2 hrs, or 6 hrs after the infarction. The neurological function score was evaluated at 24 hrs and 48 hrs after reperfusion, as was assessed by beam-walking, grip strength, and rotarod tests. At 48 hrs after reperfusion, the whole brain tissue of all rats was harvested to assess the cerebral infarct area by TTC staining, as well as to measure brain volume and brain water content, two indicators of acute cerebral edema.

[12] = tested on: mouse model of stroke induced by middle cerebral artery occlusion (MCAO); assay: Brain volume, time of treatment (Example 2); assay type: in vivo, ICR mice; conditions: 48 h after reperfusion
Protocol: as §9

[13] = tested on: rat model of stroke induced by middle cerebral artery occlusion (MCAO); assay: Grip strength, dosing regimen (Example 4); assay type: in vivo, SD rats; conditions: 10 mg/kg (table label) i.v. Bid from 30 min after infarction
Protocol: as §1

[14] = 10 mg/kg i.v. once 0.5 hr after infarction
[15] = 10 mg/kg i.v. once 2 hr after infarction
[16] = 10 mg/kg i.v. once 6 hr after infarction

## CCCCC1OC(=O)c2ccccc21 (stereo not drawn) [Butylphthalide]
[1]; Day 0
  Rotarod test score, Time: 124.5 s
[1]; Day 2
  Rotarod test score, Time: 126.8 s
[1]; Day 4
  Rotarod test score, Time: 122.2 s
[1]; Day 7
  Rotarod test score, Time: 130.7 s
[1]; Day 14
  Rotarod test score, Time: 157.3 s
[2]
  Brain water content: 329.50 ± 23.60 mg
  Brain water ratio: 81.84 ± 1.30%
[3]
  Cerebral Infarction Volume: 15.01%
[3]; vs model
  Improvement rate of infarction: 23.64%
[4]
  Brain water content: 1282.00 mg
  Brain water ratio: 78.80%
[5]
  Brain volume: 1.597 ± 0.11 mL
[6]
  Brain volume: 0.413 ± 0.03 mL
[7]; Day 0
  Beam-walking time: 23.13 s
[7]; Day 2
  Beam-walking time: 28.31 s
[7]; Day 4
  Beam-walking time: 43.23 s
[7]; Day 7
  Beam-walking time: 35.65 s
[7]; Day 14
  Beam-walking time: 16.01 s
[8]; 24 h
  Rotarod test score, Time: 216.67 ± 91.22 s
[8]; 48 h
  Rotarod test score, Time: 146.50 ± 137.21 s
[9]; 24 h
  Rotarod test score, Time: 69.83 s
[9]; 48 h
  Rotarod test score, Time: 86.42 s
[10]
  Body weight compared to model test group: No statistically significant difference
[11]; [14]
  Brain water content: 329.00 mg
  Brain water ratio: 81.23%
[11]; [15]
  Brain water content: 326.33 mg
  Brain water ratio: 81.25%
[11]; [16]
  Brain water content: 342.83 mg
  Brain water ratio: 82.36%
[12]; [14]
  Brain volume: 0.403 ± 0.04 mL
[12]; [15]
  Brain volume: 0.407 ± 0.02 mL
[12]; [16]
  Brain volume: 0.427 ± 0.03 mL
[13]; Day 0
  Grip Strength: 504.65 g
[13]; Day 2
  Grip Strength: 565.99 g
[13]; Day 4
  Grip Strength: 520.36 g
[13]; Day 7
  Grip Strength: 523.26 g
